Measurements published in patent publication US20250082611A1, “DOSING REGIMEN FOR AN NLRP3 INHIBITOR IN THE TREATMENT OF OSTEOARTHRITIS” (Novartis AG, priority 2021, published 2025).

System: IL-1β production in PMA-differentiated THP-1 cells
Assay: IL-1β production in PMA-differentiated THP-1 cells stimulated with gramicidin (hTHP-1 assay, 2% fetal bovine serum)
Assay type: cell-based
Settings: Homo sapiens, hTHP-1 assay containing 2% fetal bovine serum
Experimental: THP-1 cells were purchased from the American Type Culture Collection and sub-cultured according to instructions from the supplier. Cells were cultured in complete RPMI 1640 (containing 10% heat inactivated FBS, penicillin (100 units/ml) and streptomycin (100 μg/ml)), and maintained in log phase prior to experimental setup. Prior to the experiment, compounds were dissolved in dimethyl sulfoxide (DMSO) to generate a 30 mM stock. The compound stock was first pre-diluted in DMSO to 3, 0.34, 0.042 and 0.0083 mM intermediate concentrations and subsequently spotted using Echo550 liquid handler into an empty 384-well assay plate to achieve desired final concentration (e.g. 100, 33, 11, 3.7, 1.2, 0.41, 0.14, 0.046, 0.015, 0.0051, 0.0017 μM). DMSO was backfilled in the plate to achieve a final DMSO assay concentration of 0.37%. The plate was then sealed and stored at room temperature until required.
THP-1 cells were treated with PMA (Phorbol 12-myristate 13-acetate) (20 ng/ml) for 16-18 hours. On the day of the experiment the media was removed and adherent cells were detached with trypsin for 5 minutes. Cells were then harvested, washed with complete RPMI 1640, spun down, and resuspended in RPMI 1640 (containing 2% heat inactivated FBS, penicillin (100 units/ml) and streptomycin (100 μg/ml). The cells were plated in the 384-well assay plate containing the spotted compounds at a density of 50,000 cells/well (final assay volume 50 μl). Cells were incubated with compounds for 1 hour and then stimulated with gramicidin (5 μM) (Enzo) for 2 hours. Plates were then centrifuged at 340 g for 5 min. Cell free supernatant (40 μL) was collected using a 96-channel PlateMaster (Gilson) and the production of IL-1β was evaluated by HTRF (cisbio). The plates were incubated for 18 h at 4° C. and read using the preset HTRF program (donor emission at 620 nm, acceptor emission at 668 nm) of the SpectraMax i3x spectrophotometer (Molecular Devices, software SoftMax 6). A vehicle only control and a dose titration of CRID3 (100-0.0017 μM) were run concurrently with each experiment. […]

Compound | IC50 [nM]
CC(C)(O)c1ncc([S@@](N)(=O)=NC(=O)Nc2c3c(cc4c2CCC4)CCC3)s1 [Compound IB, (S)-N′-((1,2,3,5,6,7-hexahydro-s-indacen-4-yl)carbamoyl)-2-(2-hydroxypropan-2-yl) thiazole-5-sulfonimidamide] | 200 to 1000
CC(C)(O)c1ncc(S(N)(=O)=NC(=O)Nc2c3c(cc4c2CCC4)CCC3)s1 (centres unmarked) [Compound I, N′-(1,2,3,5,6,7-hexahydro-s-indacen-4-ylcarbamoyl)-2-(2-hydroxypropan-2-yl) thiazole-5-sulfonimidamide] | 40 to 200
